± gives the standard deviation of the averaged measurements.
Legend:
CANERTINIB = compound: C=CC(=O)Nc1cc2c(Nc3ccc(F)c(Cl)c3)ncnc2cc1OCCCN1CCOCC1 [CANERTINIB]; experiment: surviving fraction relative to DMSO-only wells; higher = less growth inhibition; conditions: exposure time: 5 days
Method in brief: (§1)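 Viability was determined by CellTiter-Glo luminescence, expressed as surviving fraction normalised to the median of DMSO-only wells. The cells were log-phase tumour cell lines seeded at 250–500 per well in 384-well plates and, after 24 hours, exposed continuously for five days to inhibitors at 0.5, 1, 5, 10, 50, 100, 500 and 1000 nM. Three screens per line were run, keeping only lines with replicate Pearson r >0.7 and median Z' >0.3.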

MDV3100 = compound: CNC(=O)c1ccc(N2C(=S)N(c3ccc(C#N)c(C(F)(F)F)c3)C(=O)C2(C)C)cc1F [MDV3100]; experiment: as above; conditions: exposure time: 5 days
Method in brief: as §1

Row | Test System | surviving fraction (CANERTINIB; 0.5 nM) | surviving fraction (CANERTINIB; 1 nM) | surviving fraction (CANERTINIB; 5 nM) | surviving fraction (CANERTINIB; 10 nM) | surviving fraction (CANERTINIB; 50 nM) | surviving fraction (CANERTINIB; 100 nM) | surviving fraction (CANERTINIB; 500 nM) | surviving fraction (CANERTINIB; 1000 nM) | surviving fraction (MDV3100; 0.5 nM) | surviving fraction (MDV3100; 1 nM) | surviving fraction (MDV3100; 5 nM) | surviving fraction (MDV3100; 10 nM) | surviving fraction (MDV3100; 50 nM) | surviving fraction (MDV3100; 100 nM) | surviving fraction (MDV3100; 500 nM) | surviving fraction (MDV3100; 1000 nM)
1 | CAL51 BREAST | 0.937 ± 0.078 | 0.92 ± 0.061 | 0.983 ± 0.053 | 0.976 ± 0.018 | 0.974 ± 0.038 | 1.05 ± 0.083 | 0.87 ± 0.014 | 0.481 ± 0.015 | 0.969 ± 0.025 | 0.944 ± 0.014 | 0.985 ± 0.016 | 0.976 ± 0.013 | 0.984 ± 0.029 | 1.05 ± 0.042 | 0.978 ± 0.11 | 0.979 ± 0.082
2 | HT1080 SOFT TISSUE | 1.02 ± 0.015 | 1.05 ± 0.03 | 0.9963 ± 0.0099 | 0.997 ± 0.0076 | 1.019 ± 0.0087 | 0.987 ± 0.031 | 0.982 ± 0.058 | 0.97 ± 0.038 | 1.052 ± 0.0076 | 1.07 ± 0.03 | 1.063 ± 0.008 | 1.05 ± 0.016 | 1.02 ± 0.018 | 1.04 ± 0.045 | 0.999 ± 0.015 | 0.994 ± 0.027
3 | MDAMB468 BREAST | 0.866 ± 0.035 | 0.837 ± 0.087 | 0.841 ± 0.087 | 0.777 ± 0.054 | 0.789 ± 0.068 | 0.72 ± 0.07 | 0.478 ± 0.029 | 0.382 ± 0.017 | 0.972 ± 0.053 | 0.952 ± 0.072 | 1.05 ± 0.11 | 1.01 ± 0.068 | 1.14 ± 0.094 | 1.04 ± 0.13 | 1.05 ± 0.038 | 0.97 ± 0.11
4 | CASKI CERVIX | 0.83 ± 0.027 | 0.8 ± 0.042 | 0.644 ± 0.052 | 0.704 ± 0.042 | 0.555 ± 0.037 | 0.516 ± 0.054 | 0.157 ± 0.018 | 0.151 ± 0.022 | 0.904 ± 0.031 | 0.894 ± 0.047 | 0.99 ± 0.026 | 0.903 ± 0.059 | 0.944 ± 0.022 | 1.08 ± 0.073 | 0.95 ± 0.046 | 0.992 ± 0.072
5 | HSSYII SYNOVIAL | 0.809 ± 0.039 | 0.794 ± 0.015 | 0.814 ± 0.053 | 0.855 ± 0.037 | 0.889 ± 0.033 | 0.868 ± 0.011 | 0.724 ± 0.031 | 0.631 ± 0.021 | 0.881 ± 0.042 | 0.848 ± 0.052 | 0.903 ± 0.022 | 0.545 ± 0.034 | 0.908 ± 0.028 | 0.9 ± 0.066 | 0.949 ± 0.032 | 0.721 ± 0.01
6 | HCC78 LUNG | 0.848 ± 0.35 | 0.812 ± 0.13 | 0.946 ± 0.086 | 0.983 ± 0.23 | 0.638 ± 0.043 | 0.775 ± 0.084 | 0.532 ± 0.081 | 0.426 ± 0.18 | 0.976 ± 0.13 | 0.75 ± 0.27 | 1.03 ± 0.11 | 0.972 ± 0.14 | 0.799 ± 0.14 | 0.925 ± 0.092 | 0.664 ± 0.045 | 0.451 ± 0.051
7 | HCC1806 BREAST | 0.803 ± 0.11 | 0.688 ± 0.12 | 0.738 ± 0.081 | 0.706 ± 0.022 | 0.738 ± 0.12 | 0.639 ± 0.027 | 0.442 ± 0.043 | 0.328 ± 0.037 | 1.01 ± 0.032 | 1.07 ± 0.067 | 1.13 ± 0.045 | 0.993 ± 0.074 | 1.14 ± 0.045 | 1.12 ± 0.049 | 1.04 ± 0.051 | 1.03 ± 0.06
8 | U2OS BONE | 0.951 ± 0.022 | 0.95 ± 0.041 | 0.942 ± 0.025 | 0.962 ± 0.047 | 0.991 ± 0.0096 | 0.991 ± 0.029 | 0.877 ± 0.017 | 0.889 ± 0.059 | 1.003 ± 0.0095 | 1.02 ± 0.022 | 1.01 ± 0.027 | 1.01 ± 0.018 | 1.04 ± 0.026 | 1.03 ± 0.018 | 1.06 ± 0.033 | 0.999 ± 0.047
9 | MDAMB361 BREAST | 0.704 ± 0.05 | 0.718 ± 0.16 | 0.642 ± 0.011 | 0.674 ± 0.078 | 0.74 ± 0.064 | 0.832 ± 0.092 | 0.691 ± 0.067 | 0.682 ± 0.053 | 0.907 ± 0.073 | 0.81 ± 0.075 | 0.935 ± 0.068 | 0.874 ± 0.074 | 0.831 ± 0.14 | 0.806 ± 0.074 | 0.921 ± 0.085 | 0.831 ± 0.077
10 | LNCAP PROSTATE | 1.1 ± 0.078 | 1 ± 0.059 | 1.09 ± 0.06 | 1.08 ± 0.036 | 1.01 ± 0.057 | 1.04 ± 0.055 | 0.935 ± 0.093 | 0.782 ± 0.086 | 1.05 ± 0.15 | 0.962 ± 0.035 | 0.912 ± 0.089 | 0.957 ± 0.13 | 0.979 ± 0.012 | 0.925 ± 0.053 | 0.663 ± 0.033 | 0.497 ± 0.079
11 | SUM44 BREAST | 0.778 ± 0.15 | 0.719 ± 0.22 | 0.797 ± 0.16 | 0.796 ± 0.18 | 1.05 ± 0.063 | 0.948 ± 0.16 | 0.84 ± 0.14 | 0.778 ± 0.12 | 0.963 ± 0.096 | 0.978 ± 0.08 | 1.06 ± 0.081 | 1.04 ± 0.058 | 1.13 ± 0.13 | 1.09 ± 0.1 | 1.03 ± 0.071 | 1.01 ± 0.1
12 | HOS BONE | 0.955 ± 0.029 | 0.923 ± 0.011 | 0.932 ± 0.031 | 0.915 ± 0.019 | 1.01 ± 0.012 | 1.01 ± 0.026 | 0.935 ± 0.011 | 0.914 ± 0.014 | 1.007 ± 0.0093 | 0.9937 ± 0.0011 | 1.01 ± 0.017 | 0.982 ± 0.0062 | 1.05 ± 0.022 | 1.05 ± 0.021 | 1.05 ± 0.017 | 1.015 ± 0.0067
13 | SAOS2 BONE | 0.853 ± 0.028 | 0.85 ± 0.042 | 0.877 ± 0.06 | 0.818 ± 0.015 | 1.02 ± 0.038 | 1.04 ± 0.12 | 0.815 ± 0.026 | 0.703 ± 0.063 | 1.08 ± 0.054 | 1.07 ± 0.026 | 1.17 ± 0.026 | 1.07 ± 0.031 | 1.14 ± 0.033 | 1.14 ± 0.1 | 1.11 ± 0.085 | 1.07 ± 0.12
14 | HCT15 LARGE INTESTINE | 0.868 ± 0.082 | 0.78 ± 0.053 | 0.775 ± 0.11 | 0.79 ± 0.064 | 0.852 ± 0.035 | 0.869 ± 0.068 | 0.843 ± 0.079 | 0.841 ± 0.076 | 0.906 ± 0.038 | 0.797 ± 0.11 | 0.862 ± 0.075 | 0.548 ± 0.11 | 0.938 ± 0.021 | 0.916 ± 0.027 | 0.968 ± 0.019 | 0.716 ± 0.1
15 | MDAMB436 BREAST | 0.798 ± 0.056 | 0.875 ± 0.064 | 0.854 ± 0.065 | 0.839 ± 0.061 | 0.956 ± 0.094 | 0.98 ± 0.13 | 0.839 ± 0.054 | 0.742 ± 0.067 | 0.965 ± 0.086 | 0.884 ± 0.076 | 0.9783 ± 0.0076 | 0.95 ± 0.024 | 0.999 ± 0.1 | 0.9082 ± 0.0022 | 0.925 ± 0.083 | 0.86 ± 0.036
16 | HUO3N1 BONE | 0.949 ± 0.063 | 0.949 ± 0.015 | 0.965 ± 0.069 | 0.943 ± 0.069 | 1 ± 0.027 | 0.995 ± 0.02 | 0.808 ± 0.03 | 0.701 ± 0.022 | 1.01 ± 0.018 | 0.989 ± 0.025 | 1.01 ± 0.044 | 1.03 ± 0.044 | 1.06 ± 0.054 | 1.02 ± 0.041 | 1.01 ± 0.069 | 1.01 ± 0.019
17 | MDAMB134 BREAST | 0.622 ± 0.012 | 0.659 ± 0.074 | 0.562 ± 0.0064 | 0.577 ± 0.0092 | 0.767 ± 0.12 | 0.831 ± 0.022 | 0.868 ± 0.066 | 0.718 ± 0.016 | 0.813 ± 0.09 | 0.82 ± 0.1 | 0.894 ± 0.2 | 0.918 ± 0.0099 | 1.06 ± 0.15 | 0.794 ± 0.033 | 1.17 ± 0.018 | 0.992 ± 0.25
18 | JURKAT HAEMATOPOIETIC AND LYMPHOID TISSUE | 1.01 ± 0.025 | 0.977 ± 0.045 | 1.02 ± 0.018 | 0.952 ± 0.041 | 0.978 ± 0.03 | 0.978 ± 0.014 | 1.01 ± 0.031 | 0.839 ± 0.043 | 1.095 ± 0.0049 | 1.1 ± 0.02 | 1.09 ± 0.022 | 1.06 ± 0.018 | 1.05 ± 0.015 | 1.06 ± 0.031 | 1 ± 0.027 | 0.997 ± 0.039
19 | CADOES1 SOFT TISSUE | 1 ± 0.13 | 0.945 ± 0.049 | 0.945 ± 0.038 | 0.93 ± 0.075 | 0.918 ± 0.17 | 0.926 ± 0.029 | 0.738 ± 0.12 | 0.595 ± 0.035 | 0.925 ± 0.1 | 0.911 ± 0.12 | 0.777 ± 0.092 | 0.848 ± 0.07 | 0.871 ± 0.087 | 0.899 ± 0.093 | 0.955 ± 0.068 | 1.05 ± 0.02
20 | SJSA1 BONE | 1.23 ± 0.12 | 1.2 ± 0.07 | 1.08 ± 0.15 | 1.31 ± 0.055 | 0.0523 ± 0.0021 | 1.64 ± 0.052 | 1.66 ± 0.053 | 1.74 ± 0.12 | 0.471 ± 0.053 | 1.27 ± 0.084 | 1.43 ± 0.11 | 0.332 ± 0.037 | 0.0403 ± 0.0031 | 1.49 ± 0.034 | 0.0293 ± 0.0025 | 1.49 ± 0.023

Reference: the supplement of paper PMC6045584
